From paper PMC10412585 (Nature Communications, 2023) come the findings set out here.

The subject of one assay is NKG2C+ NK cells. Kind of assay: NK cell activation assay with peptide-pulsed RMA-S/HLA-E cells. The format is cell-based, human. As to conditions: RMA-S/HLA-E target cells, 300 µM peptide ([…] µM BFAR263-271), E:T 2:1, 6 h, flow cytometry, n = 3 (n = 2 for some) donors. On the procedure: Fig. 4 NK cell stimulation assays. Assessment of effects of peptides on NK cell activity through incubation of NK cells, peptides, and (A) K562/HLA-E or (B) RMA-S/HLA-E target cells. […] Replicates for individual peptides are from different donors, with solid black lines indicating mean values. […] Representative gating for NKG2A^+/NKG2C^- and NKG2A^-/NKG2C^+ NK cells is shown in Supplemental Fig. 14. Source data are provided as a Source Data file.
In contrast to K562 cell lines which are targets for human NK cells, RMA-S cells (a TAP-deficient mouse cell line)[48] are inert to human NK cells and thus will not activate NK cells absent engagement of an activating receptor on the NK cells. […] We performed additional NK cell activation assays with RMA-S/HLA-E cells (Fig. 4B).
All analyses of human data were carried out in compliance with the relevant ethical regulations. Healthy blood donors gave informed consent at DRK Blutspendedienst Nord-Ost, Dresden, Germany, and buffy coats were obtained as approved by Charité ethics committee (EA4/059/17). PBMCs were isolated from human CMV-seropositive buffy coats by density centrifugation over Ficoll Paque Plus (GE Healthcare) and screened for the presence of NKG2C^+ NK cell expansions by flow cytometry to have sufficient frequencies of single-positive cells for parallel assessment of activation and inhibition via HLA-E[47]. Total NK cells from donors with NKG2C^+ expansions (>10% NKG2A^-/NKG2C^+ NK cells) were enriched with CD56 microbeads (Miltenyi Biotec) and cryopreserved in FBS with 10% v/v DMSO. After thawing, NK cells were washed with complete medium, stained with antibodies and Fixable Viability Dye eFluor 780 (Thermo Fisher) for 15 min at 4 °C in PBS, sorted as viable CD56^+ CD3^− cells, and rested in complete media overnight. […] Brefeldin A and Monensin (BD Biosciences) were added after a 1 h culture period. After an additional 5 h, the stimulation was stopped by centrifugation at 4 °C. Cells underwent surface staining, followed by fixation and intracellular staining using Inside Stain Kit (Miltenyi Biotec). Samples were analyzed by flow cytometry on an LSR Fortessa (BD Biosciences). Inhibition of NKG2A^+ NK cells and activation of NKG2C^+ NK cells was assessed by gating on the respective single-positive populations (Supplemental Fig. 14). Antibodies are listed in Supplemental Table 1: anti-human CD56 PE/Dazzle 594 (1:200 dilution), CD3 APC-eFluor 780 (1:50 dilution), anti-human CD159a (NKG2A) Biotin REAfinity (1:50 dilution), anti-human CD159c (NKG2C) PE REAfinity (1:100 dilution), anti-human CD107a (LAMP-1) Alexa Fluor 488 (1:400 dilution), anti-human IFN-γ PE-Vio 770 REAfinity (1:50 dilution), anti-human TNF-α Brilliant Violet 605 (1:50 dilution), anti-human CCL3 (MIP-1α) REAfinity (1:25 dilution).

The test system of a further assay is HLA-E. Nature of the assay: Prometheus differential scanning fluorimetry of HLA-E with peptide. The class given is binding, human. The note with it: refolded HLA-E*01:03/β2M 9 μg, 50x peptide to MHC ratio, high sensitivity capillary, 1 °C per minute 20-95 °C, first inflection point; DMSO control 33.8. As for the experimental part:
Differential scanning fluorimetry (DSF) experiments were performed with a Prometheus NanoTemper NT.48 (Munich, Germany) to measure protein stability, using intrinsic tryptophan fluorescence.
For these experiments, refolded empty HLA-E was generated. Human β2M plus a poly-histidine tag and HLA-E*01:03 extracellular α1, α2, and α3 domains plus an AviTag biotinylation tag were separately codon optimized for E. coli and cloned into the bacterial expression vector pET28a. Inclusion bodies for HLA-E and β2M were made in BL21 E. coli. Inclusion bodies were purified, homogenized, and dissolved, including denaturation in 8 M urea solution. Before refolding, each IB was mixed with an equal volume of Gdn-Cl solution (6 M Guanidine HCl, 500 mM Tris, 2 mM EDTA, 100 mM NaCl) and incubated overnight at 37 °C. β2M was injected dropwise with a 27-gauge needle into refolding buffer (100 mM pH 8.3 Tris, 400 mM L-arginine hydrochloride, 2 mM EDTA, 0.5 mM oxidized glutathione, 5 mM reduced glutathione, 0.2 mM PMSF) and incubated, stirring gently, at 4 °C for 1 h, after which an equal mass of HLA-E heavy chain was similarly injected. This solution incubated at 4 °C overnight, followed by two days of dialysis in 10 mM Tris + 50 mM NaCl. Protein was concentrated in 10 kDa molecular weight cutoff centrifugal concentrators and purified by size exclusion chromatography on an AKTAPURE FPLC (GE Healthcare, Chicago IL), using an S200 column followed by a S75 column.
Individual DSF reactions were set up with 9 μg of MHC and 100×, 50×, or 10× peptide to MHC ratio by molarity (peptides from GenScript). The final reaction volume was 20 μL and reaction mixtures were incubated at room temperature for 20–30 min.
Prometheus excitation power was set such that raw fluorescence counts were between 8000–15000 for each sample. Samples were heated at 1 °C per minute, from 20–95 °C. DSF measurements were taken in duplicate with high-sensitivity and standard capillaries. Melting temperatures were similar for a given peptide across conditions, and representative data from 50x ratio in high sensitivity capillary are presented. A secondary inflection point around 60 °C in most melts is consistent with melting of β2M[76]. […]
Supplemental Figure 9. Differential scanning fluorimetry data generated via Prometheus NanoTemper for predicted peptides with HLA-E. a) Raw 350/330 nm ratios and first derivative for samples. The second inflection point is consistent with β2M unfolding. b) Summary of Tm values for the first inflection point called by Prometheus software for these samples. […]
On the technique in general: In DSF a fluorescence change marks the thermal transition of the protein.

As to “VNPGRSLFL [BFAR263-271, human peptide from Bifunctional apoptosis regulator]”, in the assay with NKG2C+ NK cells, the “NKG2C-mediated NK cell activation” value was “activation similar to the weaker positive control ([…]) or between the two positive controls”. The Tm in the assay on HLA-E was 38.5 °C.
For VMAPRTLFL [positive control], the “NKG2C-mediated NK cell activation” value with NKG2C+ NK cells is on record as “most potent activating peptide”. In addition, the Tm in the assay with HLA-E turned out to be 51.5 °C.
